Laboratory results: patent US10640515B2, “Hepatitis C virus inhibitor and uses thereof” (priority 2016, dated 2020)

How the values were obtained:
[1] = in the rats, reported in a literature; cited from earlier work
[2] = tested on: HCV 1b-genotype replicon Con1b; test: HCV replicon luciferase assay, HCV-1b replicon (Huh7-Con1b, firefly luciferase); assay type: cell-based; conditions: Hepatitis C virus, Huh7-Con1b cells, 72 hours
Excerpt: (§1) In brief, three stably-transfected cell lines containing different HCV genotypes of replicons were used to test activity of the compounds in inhibiting the HCV replication.
(§2) A Huh7-Con1b cell line contained an HCV 1b-genotype replicon Con1b and a reporter gene of firefly luciferase. An Huh7-H77 and an Huh7-JFH1 cell line both contained a reporter gene of renilla luciferase and respectively contained an HCV 1a-genetype replicon H77 and an HCV 2a-genetype replicon JFH1. The replication level of HCV in host cells can be characterized by the expression of the firefly luciferase gene or the renilla luciferase gene. The effect of the compounds described herein on the HCV replication can be evaluated through a chemiluminescence detection of the expression of the above two luciferase genes. Meanwhile, the CC50 value of each Huh7 cell line was measured using a CellTiter GLO kit to evaluate the toxicity of the compounds.
(§3) The compounds described herein were subjected to three-fold serial dilutions using a Bravo liquid treatment system to obtain a total of 11 concentration points prior to cell plating. The prepared compounds were added to cell culture plates using an Echo 550 system. The Huh7-H77 and the Huh7-JFH1 cells were inoculated into the 96-well plate added with the compounds at an amount of 10000 cells per well. The Huh7-Con1b and the Huh7 cells were inoculated into the 384-well plate added with the compounds at an amount of 5000 cells per well. The cell culture plates were incubated in a CO2 incubator (5%) at 37° C. for 72 hours.
The 384-well plate was taken out of the incubator and cooled at room temperature for 30 minutes. After removing the medium, each well was added with 50 μL of DPBS (Dulbecco's Phosphate Buffered Saline) and then added with 50 μL of a Britelit plus reagent (PerkinElmer Inc.). Then the 384-well plate was placed in a shaker at a shaking rate of 1000 rpm at room temperature for 1 minute. Finally, the 384-well plate was read using an Envision Plate Reader at a signal accumulation time of per well of 0.1 s.

[3] = tested on: HCV 1a-genetype replicon H77; test: HCV replicon luciferase assay, HCV-1a replicon (Huh7-H77, renilla luciferase); assay type: cell-based; conditions: Hepatitis C virus, Huh7-H77 cells, 72 hours
Excerpt: (§4) The HCV replicon was first reported in Science. 1999 Jul. 2; 285 (5424), 110-3. The HCV replicon system has been one of the most important tools to investigate the RNA replication, pathogenicity and virus persistence of HCV. For example, the replicon has been successfully used to verify the 5′-NCR minimum region essential for HCV RNA replication, in addition, the HCV replicon system has been successfully used as an evaluation model for antiviral drugs.
as §1, §2, §3
(§5) The 96-well plate was taken out of the incubator and cooled at room temperature for 30 minutes. After removing the medium, each well was added with 30 μL of a diluted Promega lysate (diluted using pure water in a volume ratio of 1:4). The 96-well plate was placed in a shaker at a shaking rate of 1000 rpm at room temperature for 15 minutes. Each well was added with 100 μL of a diluted Premega luciferase reagent (Promega Inc.) (diluted using a substrate buffer in a volume ratio of 1:99) and then, the 96-well plate was immediately read using an Envision Plate Reader at a signal accumulation time of per well of 0.1 s.

[4] = tested on: HCV 2a-genetype replicon JFH1; test: HCV replicon luciferase assay, HCV-2a replicon (Huh7-JFH1, renilla luciferase); assay type: cell-based, hepatitis C virus (HCV); conditions: Huh7-JFH1 cells
Excerpt: as §4, §1, §2, §3, §5

[5] = CC50 by CellTiter-GLO kit, HCV-1b replicon cell; assay type: cell-based; conditions: human
Excerpt: as §2, §3
(§6) The CellTiter-GLO reagent was heated to room temperature. The 384-well plate plated with the Huh 7 cells was transferred from the incubator and cooled at room temperature for 20 minutes. Each well was added with 50 μL of the CellTiter-GLO reagent (Promega Inc.), and then the 384-well plate was shaken for 2 minutes. The 384-well plate was subsequently incubated in a dark environment at room temperature for 10 minutes. After the incubation, the 384-well plate was read using an Envision Plate Reader at a signal accumulation time of per well of 0.1 s.

[6] = CC50 by CellTiter-GLO kit, HCV-1a replicon cell; assay type: cell-based; conditions: human
Excerpt: as §2, §3, §6

[7] = CC50 by CellTiter-GLO kit, HCV-2a replicon cell; assay type: cell-based; conditions: human
Excerpt: as §2, §3, §6

Compound	bioavailability [1] [%]	EC50 [2] [nM]	EC50 [3] [nM]	EC50 ([4]; Hepatitis C virus, 72 h) [nM]	CC50 at 72 h [5] [nM]	CC50 at 72 h [6] [nM]	CC50 at 72 h [7] [nM]	EC50 ([4]; 72 hours) [nM]
COC(=O)N[C@H](C(=O)N1CCC[C@H]1C(=O)Nc1ccc([C@@H]2CC[C@@H](c3ccc(NC(=O)[C@@H]4CCCN4C(=O)[C@@H](NC(=O)OC)C(C)C)cc3)N2c2ccc(C(C)(C)C)cc2)cc1)C(C)C [ABT-267]	100							
COC(=O)N[C@H](C(=O)N1CCC[C@H]1C(=O)Nc1ccc2c(c1)O[C@H](c1ccccc1)n1c-2cc2cc(NC(=O)[C@@H]3CCCN3C(=O)[C@@H](NC(=O)OC)C(C)C)ccc21)C(C)C [PA6001-A]		0.00814	2.94	0.0546	> 100	> 100	> 100	
COC(=O)N[C@H](C(=O)N1CCC[C@H]1C(=O)Nc1ccc2c(c1)O[C@@H](c1ccccc1)n1c-2cc2cc(NC(=O)[C@@H]3CCCN3C(=O)[C@@H](NC(=O)OC)C(C)C)ccc21)C(C)C [PA6001-B]		0.0068	0.0593	0.0626	> 100	> 100	> 100	
COC(=O)N[C@H](C(=O)N1CCC[C@H]1C(=O)Nc1ccc2c(c1)OC(c1ccccc1)n1c-2cc2cc(NC(=O)[C@@H]3CCCN3C(=O)[C@@H](NC(=O)OC)C(C)C)ccc21)C(C)C (some centres unmarked) [PA6001]		0.02	1.57	0.059	> 100	> 100	> 100	
COC(=O)N[C@H](C(=O)N1CC2(CC2)C[C@H]1C(=O)Nc1ccc2c(c1)OC(c1ccccc1)n1c-2cc2cc(NC(=O)[C@@H]3CC4(CC4)CN3C(=O)[C@@H](NC(=O)OC)C(C)C)ccc21)C(C)C (some centres unmarked) [PA6002]		0.005	0.03	0.148	> 100	> 100	> 100	
COC(=O)N[C@H](C(=O)N1C[C@H](F)C[C@H]1C(=O)Nc1ccc2c(c1)OC(c1ccccc1)n1c-2cc2cc(NC(=O)[C@@H]3C[C@H](F)CN3C(=O)[C@@H](NC(=O)OC)C(C)C)ccc21)C(C)C (some centres unmarked) [PA6010]		0.00449	0.107	0.2	> 100	> 100	> 100	
COC(=O)N[C@H](C(=O)N1CC(F)(F)C[C@H]1C(=O)Nc1ccc2c(c1)OC(c1ccccc1)n1c-2cc2cc(NC(=O)[C@@H]3CC(F)(F)CN3C(=O)[C@@H](NC(=O)OC)C(C)C)ccc21)C(C)C (some centres unmarked) [PA6011]		0.00118	0.0476	0.312	> 100	> 100	> 100	
COC(=O)N[C@H](C(=O)N1CCC[C@H]1C(=O)Nc1ccc2c(c1)O[C@@H](c1cc(F)cc(F)c1)n1c-2cc2cc(NC(=O)[C@@H]3CCCN3C(=O)[C@@H](NC(=O)OC)C(C)C)ccc21)C(C)C [PA6016-B]		0.00434	0.018	0.0615	> 100	> 100	> 100	
COC(=O)N[C@H](C(=O)N1CCC[C@H]1C(=O)Nc1ccc2c(c1)OC(c1cc(F)cc(F)c1)n1c-2cc2cc(NC(=O)[C@@H]3CCCN3C(=O)[C@@H](NC(=O)OC)C(C)C)ccc21)C(C)C (some centres unmarked) [PA6016]		0.00365	0.0433	0.04 to 0.05	> 100	> 100	> 100	0.0499
COC(=O)N[C@H](C(=O)N1CC2(CC2)C[C@H]1C(=O)Nc1ccc2c(c1)OC(c1cc(F)cc(F)c1)n1c-2cc2cc(NC(=O)[C@@H]3CC4(CC4)CN3C(=O)[C@@H](NC(=O)OC)C(C)C)ccc21)C(C)C (some centres unmarked) [PA6017]		0.00236	0.0268	0.743	> 100	> 100	> 100	
COC(=O)N[C@H](C(=O)N1C[C@H](F)C[C@H]1C(=O)Nc1ccc2c(c1)OC(c1cc(F)cc(F)c1)n1c-2cc2cc(NC(=O)[C@@H]3C[C@H](F)CN3C(=O)[C@@H](NC(=O)OC)C(C)C)ccc21)C(C)C (some centres unmarked) [PA6018]		0.00295	0.0351	0.102	> 100	> 100	> 100	
COC(=O)N[C@H](C(=O)N1CC(F)(F)C[C@H]1C(=O)Nc1ccc2c(c1)OC(c1cc(F)cc(F)c1)n1c-2cc2cc(NC(=O)[C@@H]3CC(F)(F)CN3C(=O)[C@@H](NC(=O)OC)C(C)C)ccc21)C(C)C (some centres unmarked) [PA6019]			0.0534	0.234	> 100	> 100	> 100	
COC(=O)N[C@H](C(=O)N1CCC[C@H]1C(=O)Nc1ccc2c(c1)O[C@@H](c1c(F)c(F)c(F)c(F)c1F)n1c-2cc2cc(NC(=O)[C@@H]3CCCN3C(=O)[C@@H](NC(=O)OC)C(C)C)ccc21)C(C)C [PA6030]		0.00315	0.0763	0.207	> 100	> 100	> 100	
COC(=O)N[C@H](C(=O)N1CCC[C@H]1C(=O)Nc1ccc2c(c1)O[C@@H](c1c(F)c(F)cc(F)c1F)n1c-2cc2cc(NC(=O)[C@@H]3CCCN3C(=O)[C@@H](NC(=O)OC)C(C)C)ccc21)C(C)C [PA6031]		0.0023	0.0369	0.04 to 0.05	> 100	> 100	> 100	0.0401
COC(=O)N[C@H](C(=O)N1CCC[C@H]1C(=O)Nc1ccc2c(c1)O[C@@H](c1cc(F)c(F)c(F)c1)n1c-2cc2cc(NC(=O)[C@@H]3CCCN3C(=O)[C@@H](NC(=O)OC)C(C)C)ccc21)C(C)C [PA6032]		0.00304	0.0168	0.147	> 100	> 100	> 100	
